In PubChem BioAssay (NCI):
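In this assay, cells in 96-well plates receive the compound at five concentrations for 48 hours. Endpoints are linearly interpolated between the surrounding concentrations. Here, GI50 denotes the concentration required for 50% inhibition of growth. At the TGI there is no net growth.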

Assays:
Experiment in all cases: NCI-60 cell line screen, 48 h
HS 578T breast = system: HS 578T breast
PC-3 prostate = system: PC-3 prostate
MCF7 breast = system: MCF7 breast
DMS 114 small cell lung = system: DMS 114 small cell lung
DLD-1 colon = system: DLD-1 colon
DMS 273 small cell lung = system: DMS 273 small cell lung
MDA-N = system: MDA-N
HOP-18 NSCLC = system: HOP-18 NSCLC
RXF-631 renal = system: RXF-631 renal

| Compound | GI50 (HS 578T breast) | TGI (HS 578T breast) | GI50 (PC-3 prostate) | TGI (PC-3 prostate) | GI50 (MCF7 breast) | TGI (MCF7 breast) | TGI (DMS 114 small cell lung) | TGI (DLD-1 colon) | also measured |
| --- | --- | --- | --- | --- | --- | --- | --- | --- | --- |
| CCCc1cc(=O)oc2c(C(=O)CC(C)C)c(O)c(CC=C(C)C)c(O)c12 | 13.4 µM | > 50 µM | 6.22 µM | 34.3 µM | 7.83 µM | > 50 µM | – | – | – |
| O=C(CCCn1c2c(sc3ncccc32)c(=O)n2nnc(-c3ccccc3)c12)NCCc1cnc[nH]1 | 11.3 µM | 31.5 µM | 10.9 µM | > 100 µM | 18 µM | > 100 µM | – | – | – |
| CCOP(=O)(CCP(=O)(OCC)OCC)OCC.C[CH2][Sn]([Cl])([Cl])[CH2]C | > 100 µM | > 100 µM | > 100 µM | > 100 µM | 21.6 µM | 44.4 µM | 34.5 µM | > 79 µM | GI50 (DMS 114 small cell lung): 16.7 µM; GI50 (DLD-1 colon): 27.7 µM; GI50 (DMS 273 small cell lung): > 75.1 µM; TGI (DMS 273 small cell lung): > 100 µM; GI50 (MDA-N): > 100 µM; TGI (MDA-N): > 100 µM; GI50 (HOP-18 NSCLC): 20.7 µM; TGI (HOP-18 NSCLC): 35 µM |
| CCOC(=O)CC(=O)ON(C)C(=O)Cc1ccccc1 | – | – | – | – | – | – | > 100 µM | > 100 µM | TGI (RXF-631 renal): > 100 µM |
| COC(=O)/C(C#N)=C\N1CCN(C(=O)c2ccco2)C1=S | – | – | 6.82 µM | 63.4 µM | – | – | – | – | – |
| c1cncc(CNc2ccccc2-c2nnc(Nc3ccc4c(c3)OCO4)o2)c1 | 0.0974 µM | > 100 µM | 0.0898 µM | > 76.9 µM | 0.039 µM | > 100 µM | – | – | – |
| Nc1nc(-c2ccccc2)c(-c2ccccc2)c(-c2nc(N)nc(-c3ccccc3)c2-c2ccccc2)n1 | – | > 100 µM | – | > 100 µM | – | > 100 µM | – | – | TGI (MDA-N): > 100 µM |
| COc1ccc(/C=C2\N=C(c3ccccc3)OC2=O)c(OCc2ccccc2)c1 | – | – | – | – | – | – | 92.3 µM | 77.2 µM | TGI (DMS 273 small cell lung): > 100 µM; TGI (HOP-18 NSCLC): > 100 µM |
| NC(=O)c1ccccc1NC(=O)C(=O)C(C(=O)c1ccc2ccccc2c1)C1OC(=O)c2ccccc21 (stereo unspecified) | – | – | – | – | – | – | – | – | TGI (DMS 273 small cell lung): 38.5 µM; TGI (HOP-18 NSCLC): 22.7 µM |
| Cn1cc(-c2csc(-c3c[nH]c4ncccc34)n2)c2cc(Br)cnc21 | 2.43 µM | > 100 µM | 4.35 µM | > 100 µM | 6.77 µM | > 100 µM | – | – | – |
| Fc1ccc(-c2nc(-c3nc4ccc(Cl)cc4[nH]3)cc3c2[nH]c2ccccc23)cc1 | 3.38 µM | 57 µM | 2.09 µM | 6.95 µM | 3.27 µM | 16.6 µM | – | – | – |
| O=C1C2=C(C(=O)c3c(O)ccc(O)c31)N(c1ccc(N3CCOCC3)nc1)Cc1ccccc1O2 | 1.52 µM | > 55.4 µM | 0.387 µM | 1.89 µM | 0.161 µM | 0.658 µM | – | – | – |
| C/C(=N\NC(=O)CC(=O)Nc1ccc(C)cc1)c1cc2ccccc2oc1=O | – | – | – | – | – | – | > 100 µM | > 100 µM | TGI (DMS 273 small cell lung): > 100 µM; TGI (HOP-18 NSCLC): > 100 µM |
| COc1ccc(/C=C2/C(=O)N(C(=O)c3ccccc3O)N=C2C)cc1OC | – | – | – | > 100 µM | – | 33.9 µM | 3.61 µM | > 100 µM | TGI (MDA-N): > 100 µM |
| C=CCN1C(=O)/C(=c2\sc3n(c2=O)C2C(NN=3)N(CC)C(=O)N2CC)c2ccccc21 (stereo unspecified) | 0.447 µM | 58.5 µM | 0.548 µM | > 100 µM | 0.448 µM | > 100 µM | – | – | – |
| O=C1Cc2cc(CCn3ccnc3)c(Cl)cc2N1 | 0.873 µM | 9.92 µM | 35.6 µM | > 100 µM | 4.12 µM | > 100 µM | – | – | – |
| CCN1CCC[C@H]1c1cc(O)c2c(c1OC)C[C@H]1C[C@H]3[C@H](N)C(=O)C(C(N)=O)=C(O)[C@@]3(O)C(=O)C1=C2O | 0.0495 µM | 1.12 µM | 0.151 µM | 8.76 µM | 0.241 µM | 6.1 µM | – | – | – |
| Cc1cc(C)nc(NS(=O)(=O)c2ccc(Nc3c4ccccc4nc4c(C(=O)NCCN(C)C)ccc(Cl)c34)cc2)n1 | – | – | – | – | – | – | 3.94 µM | 13.4 µM | – |
| COC(=O)[C@]12CC[C@@H](C)[C@H](C)[C@@H]1C1=CC[C@@H]3[C@@]4(C)C[C@@H](OC(=O)c5ccco5)[C@H](O)[C@@](C)(CO)[C@@H]4[C@H](O)C[C@@]3(C)[C@]1(C)CC2 | 2.24 µM | 7.4 µM | 2.6 µM | 6.73 µM | 1.8 µM | 3.71 µM | – | – | – |
| CN(C)c1cccc(-c2cc(=O)c3ccccc3[nH]2)c1 | – | – | – | – | – | – | > 100 µM | > 100 µM | GI50 (DMS 114 small cell lung): 46 µM; TGI (DMS 273 small cell lung): > 100 µM |
| COc1cccc(Nc2nc(NNC(=O)Cc3ccccc3)nc(NNC(=O)c3ccncc3)n2)c1 | > 100 µM | > 100 µM | – | > 100 µM | > 100 µM | > 100 µM | – | – | GI50 (MDA-N): > 100 µM; TGI (MDA-N): > 100 µM |
| COc1cc2c(cc1OCCCCNC(=O)c1cc3ccccc3[nH]1)N=CC1CCCN1C2=O (stereo unspecified) | 16.1 µM | 71.5 µM | 22 µM | > 100 µM | 6.82 µM | > 100 µM | – | – | – |
| O=c1[nH]c(=S)[nH]c2c1sc(=S)n2-c1ccccc1 | – | – | – | – | – | – | > 100 µM | > 100 µM | TGI (DMS 273 small cell lung): > 100 µM; TGI (HOP-18 NSCLC): > 100 µM |
| Nc1ccc2c(c1)C(=O)c1ccc(F)cc1-2 | – | > 100 µM | – | > 100 µM | – | > 100 µM | – | – | TGI (MDA-N): > 100 µM |
| O=C(Oc1cccnc1)c1ccccc1Nc1ccnc(C(F)(F)F)c1 | 4.13 µM | > 100 µM | 0.449 µM | > 100 µM | 0.0865 µM | > 45.5 µM | – | – | – |
| Cc1ccc(/C=C(\C#N)n2nnc3cc(Cl)c(Cl)cc32)cc1 | 2.83 µM | > 100 µM | – | – | 1.88 µM | > 100 µM | – | – | – |
| CC1=C(C(=O)Nc2cccc(C(F)(F)F)c2)C(c2ccc(O)cc2)C(C(=O)Nc2cccc(C(F)(F)F)c2)=C(C)N1 | – | – | – | – | – | – | 45.8 µM | 73.3 µM | TGI (RXF-631 renal): 41.6 µM |
| CC(=O)Nc1ccc2nncnc2c1 | – | > 100 µM | – | > 100 µM | – | > 100 µM | – | – | TGI (MDA-N): > 100 µM |
| CN(C)CC(C(=O)c1ccccc1)c1ccccc1 (stereo unspecified) | 2.19 µM | 12.8 µM | 4.12 µM | 16.9 µM | 1.15 µM | 3.35 µM | – | – | – |
| CC(C)=CC/C=C(/C)[C@H]1CC[C@]2(C)[C@@H]1CC[C@@H]1[C@@]3(C)CCC(=O)NC(C)(C)[C@@H]3CC[C@]12C | 26.3 µM | 94.3 µM | 7.49 µM | 23.9 µM | 18.8 µM | 62.8 µM | – | – | – |
